Assay results from US20120258156A1, “SHAPED COMPOSITIONS FOR UNIFORM DELIVERY OF A FUNCTIONAL AGENT” (priority 2011, published 2012).

Details: salt at 5% by weight in about 10 g tablets with 75% to 95% by weight calcium hypochlorite; FIGS. 6-8
Text: The amount of calcium hypochlorite within each example ranged from 75% by weight to 95% by weight, while the various salts were included at 5% by weight, if at all.

| SMILES | effect of additive on dissolution of the calcium hypochlorite |
| --- | --- |
| O=S(=O)([O-])[O-].[Ca+2] [calcium sulfate] | slow dissolution |
| [Mg+2].[OH-].[OH-] [magnesium hydroxide] | slow dissolution |
| O=C([O-])[O-].[Na+].[Na+] [sodium carbonate] | slow dissolution |
| O=S(=O)([O-])[O-].[Mg+2] [magnesium sulfate] | slow dissolution |
| O=C([O-])[O-].[Ca+2] [calcium carbonate] | increase the rate of dissolution |
